In patent publication US4257962A, “Derivatives of bicyclic lactols” (Chinoin Gyogyszer es Vegyeszeti Termekek Gyara Rt., priority 1977, dated 1981):

Experiment: Acute toxicity (LD50) in mice
Conditions: mouse, in vivo

In the case of `CCCCCOC1C[C@@H]2[C@@H](/C=C/[C@H](O)CCCCC)[C@H](O)C[C@@H]2O1` (single isomer, unassigned; (-)) [(-)-2,3,3aβ,6aβ-Tetrahydro-2-pentyloxy-5α-hydroxy-4β-(3β-hydroxy-oct-1-trans-enyl)-cyclopentano[b]furan], the LD50 is reported as 700 mg/kg.
